Measured values published in patent US12570615B2, “Quinazolinone derivatives” (Hoffmann-La Roche Inc., priority 2021, dated 2026).

Tests used:
[1] = test system: P-ERK (ERK phospho-T202/Y204) in HCT116 cells expressing WT BRAF; assay: HTRF assay for P-ERK determination in HCT116 cells (BRAF activation); assay type: cell-based; details: Homo sapiens, HCT-116, drug incubation 1 hour, concentration giving 50% of the maximum activation achieved by Dabrafenib
Procedure, shortened: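 HCT116 cells (WT BRAF) were treated for 1 h at 37 °C in duplicate with compounds from 10 μM to 0.001 μM, then lysed. Phospho-ERK (T202/Y204) was read by HTRF at 665/620 nm. EC50 was taken from sigmoidal or bell-shaped fits, with DMSO set as 0% and the maximal dabrafenib signal as 100%.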

[2] = target: BRAF (wt) (Homo sapiens, UniProt P15056); assay: KD BRAF (wt) (Table 1); assay type: binding
[3] = test system: P-ERK (ERK phospho-T202/Y204) in A375 cells expressing V600E mutated BRAF; assay: HTRF assay for P-ERK determination in A375 cells (BRAF inhibition); assay type: cell-based; details: Homo sapiens, A-375, P-ERK level, drug incubation 1 hour, DMSO = 100%, 10 μM Dabrafenib = 0%
Procedure, shortened: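 A375 cells (8000/well) in DMEM with 10% FBS, plated overnight at 37 °C, then treated with compound at 0.001-10 μM final for 1 h. After lysis, ERK phospho-T202/Y204 was read by HTRF (665/620 nm ratio, blank-subtracted). Normalised to DMSO (100%) and 10 μM dabrafenib (0%); IC50 from sigmoidal fit.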

[4] = target: BRAF (V600E) (Homo sapiens, UniProt P15056, V600E); assay: KD BRAF (V600E) (Table 1); assay type: binding
BRAF (V600E), sequence (P15056 whole entry V600E): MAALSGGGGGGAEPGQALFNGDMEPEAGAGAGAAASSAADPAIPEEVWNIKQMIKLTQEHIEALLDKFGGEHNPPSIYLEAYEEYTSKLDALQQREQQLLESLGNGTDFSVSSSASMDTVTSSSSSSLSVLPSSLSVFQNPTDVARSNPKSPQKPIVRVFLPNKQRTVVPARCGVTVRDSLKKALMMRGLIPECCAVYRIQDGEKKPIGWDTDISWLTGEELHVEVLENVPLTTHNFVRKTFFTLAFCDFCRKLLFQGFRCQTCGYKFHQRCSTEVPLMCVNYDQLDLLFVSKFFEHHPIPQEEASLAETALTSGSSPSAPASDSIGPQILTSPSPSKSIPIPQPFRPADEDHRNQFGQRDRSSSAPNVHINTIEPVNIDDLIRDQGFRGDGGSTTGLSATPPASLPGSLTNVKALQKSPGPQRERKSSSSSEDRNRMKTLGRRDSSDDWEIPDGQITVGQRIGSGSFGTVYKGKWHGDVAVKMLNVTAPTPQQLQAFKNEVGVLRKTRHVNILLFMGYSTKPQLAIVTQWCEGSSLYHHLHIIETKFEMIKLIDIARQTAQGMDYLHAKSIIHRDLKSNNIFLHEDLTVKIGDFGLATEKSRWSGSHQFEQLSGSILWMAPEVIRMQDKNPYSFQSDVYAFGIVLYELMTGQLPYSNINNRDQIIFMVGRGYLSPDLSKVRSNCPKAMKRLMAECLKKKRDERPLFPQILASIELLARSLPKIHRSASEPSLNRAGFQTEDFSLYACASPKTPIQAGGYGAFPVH

BRAF (wt), sequence (P15056 whole entry): as the sequence (P15056 whole entry V600E) above, with E600V counted along it

Structure (SMILES)	EC50 [1] [nM]	Kd [2] [nM]	IC50 [3] [nM]	Kd [4] [nM]
N#Cc1c(Nc2ccc3ncn(CCCc4ccccc4)c(=O)c3c2)cccc1NS(=O)(=O)N1CC[C@@H](F)C1 [Example 44, (3R)—N-[2-cyano-3-[[4-oxo-3-(3-phenylpropyl)quinazolin-6-yl]amino]phenyl]-3-fluoro-pyrrolidine-1-sulfonamide]	2070	15.1	18.2	25.6
CN(CCNC(=O)CCCn1cnc2ccc(Nc3cccc(NS(=O)(=O)N4CC[C@@H](F)C4)c3C#N)cc2c1=O)C(=O)OC(C)(C)C [Example 45, tert-butyl N-[2-[4-[6-[2-cyano-3-[[(3R)-3-fluoropyrrolidin-1-yl]sulfonylamino]anilino]-4-oxo-quinazolin-3-yl]butanoylamino]ethyl]-N-methyl-carbamate]	≥ 10000	3.41	814	8.34
CC(C)(C)OC(=O)N1CCC(CCn2cnc3ccc(Nc4cccc(NS(=O)(=O)N5CCCC5)c4C#N)cc3c2=O)CC1 [Example 46, tert-butyl 4-[2-[6-[2-cyano-3-(pyrrolidin-1-ylsulfonylamino)anilino]-4-oxo-quinazolin-3-yl]ethyl]piperidine-1-carboxylate]	2540	21.2	20.6	73.5
